The source made the active and inactive calls. No cut-off for these calls is given here.
Key:
[1] = target: Epidermal growth factor receptor (Homo sapiens, UniProt P00533, L858R/T790M); test: Inhibition of EGFR L858R/T790M double mutant (unknown origin) using polyE4Y1 as substrate incubated for 5 mins with compound followed by substrate addition measured after 60 mins in presence of ATP by ADP-Glo reagent based assay
[2] = target: Epidermal growth factor receptor (Homo sapiens, UniProt P00533, C797S/EX19DEL/T790M)
Sequence of Epidermal growth factor receptor (Homo sapiens, UniProt P00533, C797S/EX19DEL/T790M) (P00533 whole entry, looked up, stated change not applied): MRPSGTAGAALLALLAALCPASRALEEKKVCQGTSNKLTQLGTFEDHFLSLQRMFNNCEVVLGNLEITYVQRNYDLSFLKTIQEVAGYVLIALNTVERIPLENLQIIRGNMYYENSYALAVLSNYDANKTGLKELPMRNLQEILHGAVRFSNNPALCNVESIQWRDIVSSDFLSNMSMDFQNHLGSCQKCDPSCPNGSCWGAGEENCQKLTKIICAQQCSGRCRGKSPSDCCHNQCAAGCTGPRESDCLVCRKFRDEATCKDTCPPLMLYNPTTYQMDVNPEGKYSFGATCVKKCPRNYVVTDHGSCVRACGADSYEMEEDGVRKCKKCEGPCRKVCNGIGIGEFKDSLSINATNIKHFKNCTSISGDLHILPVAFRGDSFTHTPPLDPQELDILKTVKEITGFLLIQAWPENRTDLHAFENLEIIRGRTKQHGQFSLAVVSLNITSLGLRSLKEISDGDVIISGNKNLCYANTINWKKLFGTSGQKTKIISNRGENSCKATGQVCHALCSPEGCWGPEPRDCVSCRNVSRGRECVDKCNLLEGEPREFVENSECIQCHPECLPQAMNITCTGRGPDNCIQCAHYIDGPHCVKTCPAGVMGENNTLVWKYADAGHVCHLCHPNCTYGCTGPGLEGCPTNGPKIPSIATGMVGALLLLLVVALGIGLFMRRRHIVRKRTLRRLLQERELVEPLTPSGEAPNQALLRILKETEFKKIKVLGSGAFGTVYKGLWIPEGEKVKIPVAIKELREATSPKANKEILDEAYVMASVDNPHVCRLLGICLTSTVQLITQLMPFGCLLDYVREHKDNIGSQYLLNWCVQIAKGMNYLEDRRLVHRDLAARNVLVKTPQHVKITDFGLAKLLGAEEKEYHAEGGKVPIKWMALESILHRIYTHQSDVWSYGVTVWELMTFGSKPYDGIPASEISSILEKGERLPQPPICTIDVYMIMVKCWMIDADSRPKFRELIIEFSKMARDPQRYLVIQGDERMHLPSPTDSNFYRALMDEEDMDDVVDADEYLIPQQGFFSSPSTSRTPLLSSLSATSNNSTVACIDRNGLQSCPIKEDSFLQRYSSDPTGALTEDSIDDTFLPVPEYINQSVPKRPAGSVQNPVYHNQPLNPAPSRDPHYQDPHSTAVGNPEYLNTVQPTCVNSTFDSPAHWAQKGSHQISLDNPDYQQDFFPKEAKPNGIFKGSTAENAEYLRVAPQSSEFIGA

A-431 = test: Antiproliferative activity against human A-431 cells assessed as inhibition of cell growth measured after 72 hrs by CCK8 assay; assay type: functional, cell-based; settings: A-431, 72 h
PC-9 [3] = test: Antiproliferative activity against human PC-9 cells assessed as inhibition of cell growth measured after 72 hrs by CCK8 assay; assay type: functional, cell-based; settings: PC-9, 72 h
PC-9 [4] = assay type: functional, cell-based; settings: Homo sapiens, PC-9, 72 h
[5] = Induction of cell cycle arrest in human H1975-TM cells assessed as accumulation at G2/M phase at 500 nM measured after 24 hrs by RNase A/propidium iodide staining based flow cytometric analysis (reference value: 17.6 %); assay type: functional
[6] = Induction of cell cycle arrest in human H1975-TM cells assessed as accumulation at S phase at 50 nM measured after 24 hrs by RNase A/propidium iodide staining based flow cytometric analysis (reference value: 18.1 %); assay type: functional
[7] = Induction of cell cycle arrest in human H1975-TM cells assessed as accumulation at S phase at 500 nM measured after 24 hrs by RNase A/propidium iodide staining based flow cytometric analysis (reference value: 18.1 %); assay type: functional
[8] = Induction of cell cycle arrest in human H1975-TM cells assessed as accumulation at G0/G1 phase at 50 nM measured after 24 hrs by RNase A/propidium iodide staining based flow cytometric analysis (reference value: 64.3 %); assay type: functional
[9] = Induction of cell cycle arrest in human H1975-TM cells assessed as accumulation at G0/G1 phase at 250 nM measured after 24 hrs by RNase A/propidium iodide staining based flow cytometric analysis (reference value: 64.3 %); assay type: functional
[10] = Induction of cell cycle arrest in human H1975-TM cells assessed as accumulation at G0/G1 phase at 500 nM measured after 24 hrs by RNase A/propidium iodide staining based flow cytometric analysis (reference value: 64.3 %); assay type: functional
[11] = Induction of apoptosis in human H1975-TM cells assessed as apoptotic cells at 250 nM measured after 24 by Annexin V-FITC and propidium iodide staining based flow cytometric analysis (reference value: 7.08 %); assay type: functional; settings: time 24 hrs
[12] = Induction of apoptosis in human H1975-TM cells assessed as apoptotic cells at 500 nM measured after 24 by Annexin V-FITC and propidium iodide staining based flow cytometric analysis (reference value: 7.08 %); assay type: functional; settings: time 24 hrs
H1975-TM [13] = test: Downregulation of AKT level in human H1975-TM cells at 50 to 1000 nM measured after 24 hrs by Western blot analysis; assay type: functional, cell-based; settings: dose 50-1000 nM
H1975-TM [14] = test: Downregulation of ERK level in human H1975-TM cells at 50 to 1000 nM measured after 24 hrs by Western blot analysis; assay type: functional, cell-based; settings: dose 50-1000 nM
[15] = Downregulation of EGFR phosphorylation in human H1975-TM cells at 1000 nM measured after 24 hrs by Western blot analysis; assay type: functional
[16] = Cmax in Sprague-Dawley rat at 5 mg/kg, iv measured upto 24 hrs by HPLC-MS/MS analysis; assay type: ADME, organism-based; parameters: time < 24 hrs, dose 5 mg/kg, route iv; settings: in vivo
[17] = Cmax in Sprague-Dawley rat at 50 mg/kg, po measured upto 24 hrs by HPLC-MS/MS analysis; assay type: ADME, organism-based; parameters: dose 50 mg/kg, time < 24 hrs, route po; settings: in vivo
[18] = AUC (0 to infinity) in Sprague-Dawley rat at 5 mg/kg, iv measured upto 24 hrs by HPLC-MS/MS analysis; assay type: ADME, organism-based; parameters: dose 5 mg/kg, time < 24 hrs, route iv; settings: in vivo
[19] = AUC (0 to infinity) in Sprague-Dawley rat at 50 mg/kg, po measured upto 24 hrs by HPLC-MS/MS analysis; assay type: ADME, organism-based; parameters: dose 50 mg/kg, time < 24 hrs, route po; settings: in vivo
[20] = MRT (0 to infinity) in Sprague-Dawley rat at 5 mg/kg, iv measured upto 24 hrs by HPLC-MS/MS analysis; assay type: ADME, organism-based; settings: in vivo
[21] = MRT (0 to infinity) in Sprague-Dawley rat at 50 mg/kg, po measured upto 24 hrs by HPLC-MS/MS analysis; assay type: ADME, organism-based; settings: in vivo
[22] = Tmax in Sprague-Dawley rat at 50 mg/kg, po measured upto 24 hrs by HPLC-MS/MS analysis; assay type: ADME, organism-based; settings: in vivo
[23] = Half life in Sprague-Dawley rat at 5 mg/kg, iv measured upto 24 hrs by HPLC-MS/MS analysis; assay type: ADME, organism-based; settings: in vivo
[24] = Half life in Sprague-Dawley rat at 50 mg/kg, po measured upto 24 hrs by HPLC-MS/MS analysis; assay type: ADME, organism-based; settings: in vivo
[25] = Oral bioavailability in Sprague-Dawley rat at 50 mg/kg measured upto 24 hrs by HPLC-MS/MS analysis; assay type: ADME, organism-based; settings: in vivo
[26] = Antitumor activity against human H1975-TM cells xenografted in BALB/c mouse assessed as tumor growth inhibition at 25 mg/kg, po measured after 25 days; assay type: functional; settings: time 25 day
[27] = Antitumor activity against human H1975-TM cells xenografted in BALB/c mouse assessed as tumor growth inhibition at 100 mg/kg, po measured after 25 days; assay type: functional; settings: time 25 day
[28] = Toxicity in BALB/c mouse xenografted with human H1975-TM cells assessed as change in body weight at 25 to 100 mg/kg, po measured after 25 days; assay type: organism-based; settings: in vivo, 600 h, dose 25-100 mg/kg, time 25 day
[29] = Toxicity in BALB/c mouse xenografted with human H1975-TM cells assessed as appearance of lesions in heart at 25 to 100 mg/kg, po measured after 25 days by hematoxylin-eosin staining based analysis; assay type: organism-based; settings: in vivo, 600 h, dose 25-100 mg/kg, time 25 day
[30] = Toxicity in BALB/c mouse xenografted with human H1975-TM cells assessed as appearance of lesions in liver at 25 to 100 mg/kg, po measured after 25 days by hematoxylin-eosin staining based analysis; assay type: organism-based; settings: in vivo, 600 h, dose 25-100 mg/kg, time 25 day
[31] = Toxicity in BALB/c mouse xenografted with human H1975-TM cells assessed as appearance of lesions in spleen at 25 to 100 mg/kg, po measured after 25 days by hematoxylin-eosin staining based analysis; assay type: organism-based; settings: in vivo, 600 h, dose 25-100 mg/kg, time 25 day
[32] = Toxicity in BALB/c mouse xenografted with human H1975-TM cells assessed as appearance of lesions in lung at 25 to 100 mg/kg, po measured after 25 days by hematoxylin-eosin staining based analysis; assay type: organism-based; settings: in vivo, 600 h, dose 25-100 mg/kg, time 25 day
[33] = target: T1, Epidermal growth factor receptor (Homo sapiens, UniProt P00533, C797S/L858R/T790M)
T1 sequence (P00533 25-1210 T790M/C797S/L858R limits assumed): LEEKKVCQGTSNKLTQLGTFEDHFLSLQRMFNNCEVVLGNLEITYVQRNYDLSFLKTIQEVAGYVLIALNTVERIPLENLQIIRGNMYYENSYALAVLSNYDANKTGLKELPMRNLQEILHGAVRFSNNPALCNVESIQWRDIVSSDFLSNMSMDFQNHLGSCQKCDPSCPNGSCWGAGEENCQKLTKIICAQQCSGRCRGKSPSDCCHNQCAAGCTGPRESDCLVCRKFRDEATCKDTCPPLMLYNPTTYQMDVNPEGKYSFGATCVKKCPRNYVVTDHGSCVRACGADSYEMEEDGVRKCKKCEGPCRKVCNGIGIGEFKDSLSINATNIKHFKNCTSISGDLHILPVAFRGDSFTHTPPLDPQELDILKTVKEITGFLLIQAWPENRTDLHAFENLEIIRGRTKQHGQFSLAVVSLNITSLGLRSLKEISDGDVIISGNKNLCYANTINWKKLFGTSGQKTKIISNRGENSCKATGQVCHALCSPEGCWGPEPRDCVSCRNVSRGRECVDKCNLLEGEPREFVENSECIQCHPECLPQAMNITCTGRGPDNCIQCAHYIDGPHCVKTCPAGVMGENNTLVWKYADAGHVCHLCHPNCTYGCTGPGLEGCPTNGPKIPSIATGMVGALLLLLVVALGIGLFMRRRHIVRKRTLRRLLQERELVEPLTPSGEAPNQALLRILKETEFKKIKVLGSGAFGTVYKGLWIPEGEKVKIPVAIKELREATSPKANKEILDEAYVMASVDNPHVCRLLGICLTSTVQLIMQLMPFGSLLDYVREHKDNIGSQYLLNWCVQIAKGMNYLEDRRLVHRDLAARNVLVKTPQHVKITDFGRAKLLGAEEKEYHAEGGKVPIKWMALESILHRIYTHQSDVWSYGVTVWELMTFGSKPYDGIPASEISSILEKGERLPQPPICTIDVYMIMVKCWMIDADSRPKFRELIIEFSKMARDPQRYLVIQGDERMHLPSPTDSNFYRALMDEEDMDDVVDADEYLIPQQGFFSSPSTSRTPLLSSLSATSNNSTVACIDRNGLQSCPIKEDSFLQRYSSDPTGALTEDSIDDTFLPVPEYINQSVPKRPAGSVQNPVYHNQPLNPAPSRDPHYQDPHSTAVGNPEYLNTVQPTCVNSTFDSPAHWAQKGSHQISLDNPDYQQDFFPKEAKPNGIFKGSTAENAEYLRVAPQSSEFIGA

[34] = target: Epidermal growth factor receptor (Homo sapiens, UniProt P00533)
Sequence of Epidermal growth factor receptor (Homo sapiens, UniProt P00533) (P00533 whole entry): as the sequence (P00533 whole entry, looked up, stated change not applied) above
Description: Inhibition of wild-type EGFR (unknown origin) using polyE4Y1 as substrate incubated for 5 mins with compound followed by substrate addition measured after 60 mins in presence of ATP by ADP-Glo reagent based assay

[35] = target: T1, Epidermal growth factor receptor; remark: listed apart in the source
H1975-TM [36] = settings: Homo sapiens, dose 10-500 nM, time 10.0 day

Sequence of Epidermal growth factor receptor (Homo sapiens, UniProt P00533, L858R/T790M) (P00533 25-1210 T790M/L858R limits assumed): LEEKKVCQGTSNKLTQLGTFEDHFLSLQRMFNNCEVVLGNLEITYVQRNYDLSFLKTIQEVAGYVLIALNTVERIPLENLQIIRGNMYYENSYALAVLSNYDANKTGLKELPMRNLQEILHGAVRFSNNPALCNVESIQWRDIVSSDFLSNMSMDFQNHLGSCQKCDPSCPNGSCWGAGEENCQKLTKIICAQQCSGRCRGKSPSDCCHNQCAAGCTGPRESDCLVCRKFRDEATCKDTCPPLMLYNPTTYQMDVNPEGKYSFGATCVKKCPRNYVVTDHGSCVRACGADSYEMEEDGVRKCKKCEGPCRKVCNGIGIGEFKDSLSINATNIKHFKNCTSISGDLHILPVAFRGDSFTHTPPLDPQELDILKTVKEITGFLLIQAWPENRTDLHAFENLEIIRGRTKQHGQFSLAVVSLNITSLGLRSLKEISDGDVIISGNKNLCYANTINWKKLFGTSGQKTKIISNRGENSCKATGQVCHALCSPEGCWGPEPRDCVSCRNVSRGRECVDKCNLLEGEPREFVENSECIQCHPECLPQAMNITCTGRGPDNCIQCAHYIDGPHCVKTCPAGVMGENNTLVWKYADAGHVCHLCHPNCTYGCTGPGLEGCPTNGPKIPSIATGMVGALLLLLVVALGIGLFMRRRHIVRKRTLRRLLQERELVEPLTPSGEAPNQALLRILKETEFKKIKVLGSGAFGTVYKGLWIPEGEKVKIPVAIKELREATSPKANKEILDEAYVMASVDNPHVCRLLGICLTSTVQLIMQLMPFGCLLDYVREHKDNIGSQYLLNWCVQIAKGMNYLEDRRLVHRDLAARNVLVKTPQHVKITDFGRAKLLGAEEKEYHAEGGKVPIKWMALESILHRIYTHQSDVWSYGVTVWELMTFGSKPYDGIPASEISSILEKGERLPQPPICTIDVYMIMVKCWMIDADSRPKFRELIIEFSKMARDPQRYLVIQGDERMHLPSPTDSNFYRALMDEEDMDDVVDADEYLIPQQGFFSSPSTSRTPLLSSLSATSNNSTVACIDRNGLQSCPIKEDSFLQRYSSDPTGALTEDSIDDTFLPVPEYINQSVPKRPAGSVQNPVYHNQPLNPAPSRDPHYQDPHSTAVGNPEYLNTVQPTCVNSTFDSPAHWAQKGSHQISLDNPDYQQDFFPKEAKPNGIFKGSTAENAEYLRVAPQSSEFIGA

Compound: CCS(=O)(=O)N1CCC(c2nc(-c3ccc(F)cc3)c(-c3ccnc(Nc4ccc5c(ccn5CCN(C)C)c4)n3)s2)CC1
- IC50 [1]: 21 nM
- IC50 [2]: 33 nM
- IC50 (A-431): 1400 nM
- IC50 (PC-9 [3]): 5 nM
- IC50 (PC-9 [4]): 30 nM
- Activity [5]: 13.4%
- Activity [6]: 17.3%
- Activity [7]: 10.3%
- Activity [8]: 68.3%
- Activity [9]: 70.3%
- Activity [10]: 76.3%
- Activity [11]: 19.88%
- Activity [12]: 27.8%
- Activity (H1975-TM [13]): Active
- Activity (H1975-TM [14]): Active
- Activity [15]: 100%
- Cmax [16]: 761 ng/mL
- Cmax [17]: 404 ng/mL
- AUC(0-inf) [18]: 1560 ng·h/mL
- AUC(0-inf) [19]: 4780 ng·h/mL
- MRT inf [20]: 4.37 h
- MRT inf [21]: 5.43 h
- Tmax [22]: 2 h
- half-life [23]: 282 min
- half-life [24]: 509 min
- bioavailability [25]: 30.7%
- TGI [26]: 47.5%
- TGI [27]: 62.9%
- Activity [28]: Non-Toxic
- Activity [29]: Non-Toxic
- Activity [30]: Non-Toxic
- Activity [31]: Non-Toxic
- Activity [32]: Non-Toxic
- IC50 [33]: 5.1 nM
- IC50 [34]: 106 nM
- IC50 [35]: 261 nM
- inhibition (H1975-TM [36]): Dose-Dependent Effect

From ChEMBL document CHEMBL5370655
